The values below come from ChEMBL document CHEMBL1122781, “[(Aminomethyl)aryloxy]acetic acid esters. A new class of high-ceiling diuretics. 1. Effects of nitrogen and aromatic nuclear substitution” (J Med Chem, 1984).

Data set [1] deals with Rattus norvegicus. As to the kind of experiment: Oral dose necessary to produce excretion of 2 mequiv of Na+/kg in rat urine in a 4-hr period after oral administration; inactive. The data set is classed as ADME, organism-based. Particulars: in vivo; call rule not given here.
Data set [2] deals with Rattus norvegicus. As to the kind of experiment: Oral dose necessary to produce an excretion of 2 mequiv of Na+/kg in the rat urine in the 4-h period after peroral administration. In kind it is ADME, organism-based. The note with it: in vivo.
In data set [3] the test system is Rattus norvegicus. As to the kind of experiment: Percent change of arterial blood pressure in spontaneously hypertensive rats at the dose of 100 mg/kg (p.o.) after […] (control BP(mm Hg)=206). In kind it is functional. Particulars: route oral.
Data set [4] concerns Rattus norvegicus. As to the kind of experiment: Percent change of arterial blood pressure in spontaneously hypertensive rats at the dose of 300 mg/kg (p.o.) after 24 h (control BP(mm Hg)=214). The data set is classed as functional. The note with it: route oral.
The test system of data set [5] is Rattus norvegicus. As to the kind of experiment: Percent change of arterial blood pressure in spontaneously hypertensive rats at the dose of 100 mg/kg (p.o.) after 24 hr (control BP(mm Hg)=206). The data set is classed as functional. The note with it: route oral.
Data set [6] deals with Rattus norvegicus. As to the kind of experiment: Percent change of arterial blood pressure in spontaneously hypertensive rats at the dose of 100 mg/kg (p.o.) after 6 hr (control BP(mm Hg)=206). In kind it is functional. The note with it: route oral.
Data set [7] relates to Rattus norvegicus. As to the kind of experiment: Percent change of arterial blood pressure in spontaneously hypertensive rats at the dose of 300 mg/kg (p.o.) after […] (control BP(mm Hg)=214). The data set is classed as functional. The note with it: route oral.
Data set [8] relates to Rattus norvegicus. As to the kind of experiment: Percent change of arterial blood pressure in spontaneously hypertensive rats at the dose of 30 mg/kg (p.o.) after 6 hr (control BP(mm Hg)=210). The data set is classed as functional. The note with it: route oral.
Data set [9] deals with Rattus norvegicus. As to the kind of experiment: Percent change of arterial blood pressure in spontaneously hypertensive rats at the dose of 30 mg/kg (p.o.) after […] (control BP(mm Hg)=210). The note with it: route oral. The data set is classed as functional.
The test system of data set [10] is Rattus norvegicus. As to the kind of experiment: Percent change of arterial blood pressure in spontaneously hypertensive rats at the dose of 30 mg/kg (p.o.) after 24 hr (control BP(mm Hg)=210). In kind it is functional. Particulars: route oral.
Data set [11] deals with Rattus norvegicus. As to the kind of experiment: Percent change of arterial blood pressure in spontaneously hypertensive rats at the dose of 300 mg/kg (p.o.) after 6 hr (control BP(mm Hg)=214). The data set is classed as functional. Particulars: route oral.

With `CCOC(=O)COc1ccc(C(=O)c2ccc(O)c(C(=O)O)c2)c(Cl)c1Cl`, the ED2 result with Rattus norvegicus [1] is “Not Active”. Still for that read-out and setting: with `CCOC(=O)COc1ccc(C(=O)c2ccc(O)c(CO)c2)c(Cl)c1Cl` the entry was “Not Active”; with `CCOC(=O)COc1ccc(C(=O)c2cc(CN3CCS(=O)(=O)CC3)c(O)c(CN3CCS(=O)(=O)CC3)c2)c(Cl)c1Cl`, “Not Active”. On the same count and under the same terms, with `CCOC(=O)COc1ccc(C(=O)c2ccc(O)c(CNC(C)=O)c2)c(Cl)c1Cl` the entry was “Not Active”; with `CCOC(=O)COc1ccc(C(=O)c2ccc3c(c2)CNC(=O)O3)c(Cl)c1Cl`, “Not Active”; with `CN(C)Cc1cc(C(=O)c2ccc(OCC(=O)O)c(Cl)c2Cl)ccc1O`, “Not Active”. On the same count and under the same terms, the value for `CCOC(=O)COc1ccc(C(=O)c2ccc(O)c(C(N)=O)c2)c(Cl)c1Cl` was “Not Active”.

In the case of `CCOC(=O)COc1ccc(C(=O)c2ccc(O)c(CN=C(N)N)c2)c(Cl)c1Cl`, the ED2 in the data set on Rattus norvegicus [2] is 34 mg/kg. With `CCOC(=O)COc1ccc(C(=O)c2ccc(O)c(CN3CCS(=O)(=O)CC3)c2)c(Cl)c1Cl`, in the data set with Rattus norvegicus [1], the ED2 entry was “Not Active”. Take `CCOC(=O)COc1ccc(C(=O)c2ccc(O)c(C[N+](C)(C)C)c2)c(Cl)c1Cl.[Cl-]`: in the data set with Rattus norvegicus [1], the ED2 entry is listed as “Not Active”.

Take `CN(C)Cc1cc(C(=O)c2ccc(OCC(=O)O)c(Cl)c2Cl)cc(CN(C)C)c1O.Cl`: in the data set on Rattus norvegicus [1], the ED2 result was “Not Active”.

In the case of `CCOC(=O)COc1ccc(C(=O)c2cc(I)c(O)c(CN)c2)c(Cl)c1Cl.Cl`, the ED2 with Rattus norvegicus [2] stood at 1 mg/kg. Regarding `CCOC(=O)COc1ccc(C(=O)c2ccc(O)c(CN)c2)cc1.Cl`, the ED2 in the data set on Rattus norvegicus [2] was 10 mg/kg.

For `CCOC(=O)COc1ccc(C(=O)c2cc(Cl)c(O)c(CN)c2)c(Cl)c1Cl.Cl`, in the data set with Rattus norvegicus [2], the ED2 is 1 mg/kg. `CCOC(=O)COc1ccc(C(=O)c2ccc(CN)c(OC)c2)c(Cl)c1Cl.Cl`: the ED2 result in the data set on Rattus norvegicus [1] was “Not Active”. In the case of `CCOC(=O)COc1ccc(C(=O)c2cc(C)c(O)c(CN)c2)c(Cl)c1Cl.Cl`, the ED2 with Rattus norvegicus [2] is 1 mg/kg. Regarding `Br.CCOC(=O)COc1ccc(C(=O)c2ccc(OC)c(CN)c2)c(Cl)c1Cl`, the ED2 entry in the data set on Rattus norvegicus [1] was “Not Active”.

`CCOC(=O)COc1ccc(C(=O)c2cccc(CN)c2)c(Cl)c1Cl.Cl`: the ED2 in the data set with Rattus norvegicus [2] was 12 mg/kg.

As for `Cl.NCc1cc(C(=O)c2ccc(OCC(=O)O)c(Cl)c2Cl)ccc1O`, the ED2 result in the data set with Rattus norvegicus [1] is “Not Active”.

On to `CCOC(=O)COc1ccc(C(=O)c2ccc(O)c(CN(C)C)c2)c(Cl)c1Cl.Cl`, for which the ED2 in the data set with Rattus norvegicus [2] stood at 16 mg/kg.

For the compound `CCOC(=O)COc1ccc(C(=O)c2ccc(CN)cc2)c(Cl)c1Cl.Cl`, the ED2 result with Rattus norvegicus [1] is on record as “Not Active”. As for `CCOC(=O)COc1ccc(C(=O)c2ccc(Cl)c(CN)c2)c(Cl)c1Cl.Cl`, the ED2 in the data set on Rattus norvegicus [2] came out at 50 mg/kg. In the case of `CCOC(=O)COc1ccc(C(=O)c2cccc(CN)c2O)c(Cl)c1Cl.Cl`, the ED2 entry in the data set with Rattus norvegicus [1] was “Not Active”. Turning to `CCOC(=O)COc1ccc(C(=O)c2cc(CN3CCCCC3)c(O)c(CN3CCCCC3)c2)c(Cl)c1Cl.Cl`, the ED2 entry with Rattus norvegicus [1] was “Not Active”. For the compound `CCOC(=O)COc1ccc(C(=O)c2cc(CN)ccc2O)c(Cl)c1Cl.Cl`, in the data set with Rattus norvegicus [2], the ED2 is 3 mg/kg.

Turning to `CCOC(=O)COc1ccc(C(=O)c2ccc(O)c(CN3CCCCC3)c2)c(Cl)c1Cl.Cl`, the ED2 result with Rattus norvegicus [1] was “Not Active”.

For `CCOC(=O)COc1ccc(C(=O)c2ccc(O)c(CN3CCCC3)c2)c(Cl)c1Cl.Cl`, the ED2 entry in the data set on Rattus norvegicus [1] is “Not Active”. Regarding `CCOC(=O)COc1ccc(C(=O)c2ccc(O)c(C(C)N)c2)c(Cl)c1Cl.Cl` (stereo not given), the ED2 in the data set with Rattus norvegicus [2] was found to be 1.2 mg/kg. The same measure, in the same setting: with `CCOC(=O)COc1ccc(C(=O)c2ccc(O)c(CN)c2)c2ccccc12.Cl` the figure was 15 mg/kg. With `CCOC(=O)COc1ccc(C(=O)c2ccc(O)c(CN(CC)CC)c2)c(Cl)c1Cl.Cl`, the ED2 result with Rattus norvegicus [1] is “Not Active”. As to `Br.CCOC(=O)COc1ccc(C(=O)c2ccc(CN)c(O)c2)c(Cl)c1Cl`, in the data set on Rattus norvegicus [1], the ED2 result is listed as “Not Active”.

`CCOC(=O)COc1ccc(C(=O)c2ccc(O)c(CN)c2)cc1Cl.Cl`: the ED2 with Rattus norvegicus [2] turned out to be 5 mg/kg. For `CCOC(=O)COc1ccc(C(=O)c2ccc(O)c(CN3CCOCC3)c2)c(Cl)c1Cl.Cl`, in the data set on Rattus norvegicus [1], the ED2 result was “Not Active”.

`CCOC(=O)COc1ccc(C(=O)c2cc(CN3CCCC3)c(O)c(CN3CCCC3)c2)c(Cl)c1Cl.Cl`: the ED2 entry in the data set with Rattus norvegicus [1] was “Not Active”. On to `CCOC(=O)COc1ccc(C(=O)c2cc(CN)c(O)c(CN)c2)c(Cl)c1Cl.Cl`, for which, in the data set on Rattus norvegicus [2], the ED2 amounted to 11 mg/kg. For `CCOC(=O)COc1ccc(C(=O)c2cc(CN(CC)CC)c(O)c(CN(CC)CC)c2)c(Cl)c1Cl.Cl`, the ED2 result with Rattus norvegicus [1] is given as “Not Active”.

On to `CCOC(=O)COc1ccc(C(=O)c2cc(CN3CCOCC3)c(O)c(CN3CCOCC3)c2)c(Cl)c1Cl.Cl`, for which the ED2 result in the data set on Rattus norvegicus [1] is on record as “Not Active”. With `CCOC(=O)COc1ccc(C(=O)c2ccc(O)c(CN)c2)c(Cl)c1.Cl`, the ED2 in the data set with Rattus norvegicus [2] was 5 mg/kg. On the same count and under the same terms, with `CCOC(=O)COc1ccc(C(=O)c2ccc(O)c(CNO)c2)c(Cl)c1Cl.Cl` the figure was 4 mg/kg; with `CCOC(=O)COc1ccc(C(=O)c2ccc(O)c(CN)c2)c(C)c1C.Cl`, 6 mg/kg. Turning to `CCOC(=O)COc1ccc(C(=O)c2cc(CN(C)C)c(O)c(CN(C)C)c2)c(Cl)c1Cl.Cl`, the ED2 in the data set on Rattus norvegicus [2] is 7 mg/kg.

With `Cl.NS(=O)(=O)c1cc(C(=O)O)c(NCc2ccco2)cc1Cl` [FUROSEMIDE HYDROCHLORIDE], the Change with Rattus norvegicus [3] is reported as -11%; in the data set on Rattus norvegicus [4] it was -37%; in the data set on Rattus norvegicus [5], -12%; in the data set with Rattus norvegicus [6] it was -3%; with Rattus norvegicus [7], -21%; in the data set on Rattus norvegicus [8] it was -6%. Moreover, the values for the Change in the data set with Rattus norvegicus [9], in the data set with Rattus norvegicus [10] and with Rattus norvegicus [11] were -10%, 1% and -31%, respectively.
